One assay relates to Aβ42 secretion. The assay is described as follows: Aβ42 secretion by H4 cells expressing APP695, sandwich ELISA. The class given is cell-based, human. Particulars: medium collected at 24 or 48 hours, several numbers = independent sets of assays; for IC50: about 1 μM to about 100 μM; for inhibition at 100 µM / % Inhibition of Aβ42 Secretion @ 100 μM: test compound 100 μM vs DMSO control. As for the experimental part:
(§1) The present invention provides compositions and methods for lowering Aβ42 levels. To test whether compounds and compositions are capable of modulating Aβ levels in cultured cells, sandwich enzyme-linked immunosorbent assays (ELISAs) are employed to measure secreted Aβ (Aβ42 and/or Aβ40 levels). In this example, H4 cells expressing wide type APP695 are seeded at 200,000 cells per well in 6 well plates, and incubated at 37° C. with 5% CO2 overnight. Cells are treated with 1.5 ml medium containing vehicle (DMSO) or a test compound at 1.25 μM, 2.5 μM, 5.0 μM and 10.0 μM (as well as other concentration if desirable) for 24 hours or 48 hours. The supernatant from treated cells is collected into eppendorf tubes and frozen at −80° C. for future analysis.
(§2) The amyloid peptide standard is reconstituted and frozen samples are thawed. The samples and standards are diluted with appropriate diluents and the plate is washed 4 times with Working Wash Buffer and patted dry on a paper towel. 100 μL per well of peptide standards, controls, and dilutions of samples to be analyzed is added. The plate is incubated for 2 hours while shaking on an orbital plate shaker at RT. The plate is then washed 4 times with Working Wash Buffer and patted dry on a paper towel. Detection Antibody Solution is poured into a reservoir and 100 μL/well of Detection Antibody Solution is immediately added to the plate. The plate is incubated at RT for 2 hours while shaking and then washed four times with Working Wash Buffer and patted dry on a paper towel. Secondary Antibody Solution is then poured into a reservoir and 100 μL/well of Secondary Antibody Solution is immediately added to the plate. The plate is incubated at RT for 2 hours with shaking, washed 5 times with Working Wash Buffer, and patted dry on a paper towel.
(§3) 100 μL of stabilized chromogen is added to each well and the liquid in the wells begins to turn blue. The plate is incubated for 30 minutes at room temperature and in the dark. 100 μL of stop solution is added to each well and the plate is tapped gently to mix resulting in a change of solution color from blue to yellow. The absorbance of each well is read at 450 nm having blanked the plate reader against a chromogen blank composed of 100 μL each of stabilized chromogen and stop solution. The plate is read within 2 hours of adding the stop solution. The absorbance of the standards is plotted against the standard concentration and the concentrations of unknown samples and controls are calculated.
(§4) The present invention provides compositions and methods for lowering Aβ42 levels. To test whether compounds and compositions are capable of modulating Aβ levels, sandwich enzyme-linked immunosorbent assays (ELISAs) is employed to measure secreted Aβ42 and/or Aβ40 levels. In this example, H4 cells expressing wide type APP695 are seeded at 200,000 cells per well in 6 well plates, and incubated at 37° C. with 5% CO2 overnight. Cells are treated with 1.5 mL medium containing vehicle (DMSO) or a test compound at 1.25 μM, 2.5 μM, 5.0 μM and 10.0 μM concentration for 24 hours or 48 hours. The supernatant from treated cells is collected into eppendorf tubes and frozen at −80° C. for future analysis.
(§5) 130 μL per well of samples, standards, and blanks is added to a 96-well polypropylene plate. […] of samples, standards, and blanks from the polypropylene plate is added to the antibody-coated plates. The strip-holder with the appropriate number of strips is applied to the antibody-coated plates and the strips are covered with an adhesive sealer. The plate is then incubated 3 hours at room temperature while shaking on an orbital plate shaker.
(§6) The first antibody solution is prepared with Conjugate Diluent 1 at 1:100 ratio. Each well of the antibody-coated plates is washed 5 times with 400 μL washing solution and 100 μL of the prepared first antibody solution is added to each well. […]
A general note: An ELISA detects its analyte on a solid surface through an enzyme-linked reagent.

The next assay has as its system Aβ40 secretion. Nature of the assay: Aβ40 secretion by H4 cells expressing APP695, sandwich ELISA. The class given is cell-based, human. The following applies: medium collected at 24 or 48 hours, several numbers = independent sets of assays; for IC50: about 1 μM to about 100 μM; for inhibition at 100 µM / % Inhibition of Aβ40 Secretion @ 100 μM: test compound 100 μM vs DMSO control. The procedure:
as §1, §2, §3, §4, §5, §6

“And” between values parts separate entries of the source, which are not always exact repeats. Equal entries are not always repeated. A value given as a limit tells only on which side of the number the result lay.

The IC50 is the concentration needed to halve the response being measured. A higher IC50 goes with lower potency. Usually inhibition stands for the change of the read-out against control, counted positive when it falls.

Consider `O=C(O)c1cccc(-n2cc(-c3ccccc3)cc2-c2ccccc2)c1` [Compound 6, 3-(2,4-Diphenyl-pyrrol-1-yl)-benzoic acid], for which, in the assay with Aβ42 secretion (Homo sapiens), half-maximal inhibition (IC50) was put at 30 µM and the inhibition at 100 µM was found to be 74%. In the assay on Aβ40 secretion (Homo sapiens), the half-inhibitory concentration (IC50) was above 100 µM and the inhibition at 100 µM was found to be 32%.

In the case of `CCc1c(-c2ccccc2)cc(-c2ccccc2)n1-c1cccc(CCC(=O)O)c1` [Compound 12, 3-[3-(2-Ethyl-3,5-diphenyl-pyrrol-1-yl)-phenyl]-propionic acid], in the assay on Aβ42 secretion (Homo sapiens), half-maximal inhibition (IC50) required 34 µM and the inhibition at 100 µM stood at 85%. In the assay on Aβ40 secretion (Homo sapiens), the half-maximal inhibitory concentration (IC50) is above 100 µM and the inhibition at 100 µM is 27%.

Take `Cc1c(-c2ccccc2)cc(-c2ccc(Cl)c(Cl)c2)n1-c1cccc(C(=O)O)c1` [Compound 17, 3-[5-(3,4-Dichloro-phenyl)-2-methyl-3-phenyl-pyrrol-1-yl]-benzoic acid]: the IC50 in the assay on Aβ42 secretion (Homo sapiens) was 10 µM; in the assay on Aβ40 secretion (Homo sapiens), above 100 µM. The inhibition at 100 µM in the assay on Aβ42 secretion (Homo sapiens) was 83%; in the assay on Aβ40 secretion (Homo sapiens) it was 10%.

With `O=C(O)c1cccc(-n2c(CCc3ccccc3)ccc2-c2ccccc2)c1` [Compound 23, 3-(2-Phenethyl-5-phenyl-pyrrol-1-yl)-benzoic acid], in the assay with Aβ42 secretion (Homo sapiens), the IC50 amounted to 23 µM and the inhibition at 100 µM came out at 77%. In the assay with Aβ40 secretion (Homo sapiens), the IC50 turned out to be 70 µM and the inhibition at 100 µM came out at 67%.

`CC(C)c1c(-c2ccccc2)cc(-c2ccccc2)n1-c1ccc(CCCC(=O)O)cc1` [Compound 32, 4-[4-(2-Isopropyl-3,5-diphenyl-pyrrol-1-yl)-phenyl]-butyric acid]: in the assay on Aβ42 secretion (Homo sapiens), the midpoint of inhibition, the IC50, lay at 22 µM and the inhibition at 100 µM was 98%. Also, in the assay with Aβ40 secretion (Homo sapiens), the IC50 stood at 41 µM and the inhibition at 100 µM worked out at 103%.

As for `Cc1c(-c2cccc(C(F)(F)F)c2)cc(-c2ccccc2)n1-c1cccc(CCC(=O)O)c1` [Compound 9, 3-{3-[2-Methyl-5-phenyl-3-(3-trifluoromethyl-phenyl)-pyrrol-1-yl]-phenyl}-propionic acid], in the assay with Aβ42 secretion (Homo sapiens), the concentration for half-maximal inhibition (IC50) was found to be 15 µM and the inhibition at 100 µM worked out at 82%. Moreover, in the assay on Aβ40 secretion (Homo sapiens), half-maximal inhibition (IC50) required 28 µM and the inhibition at 100 µM amounted to 86%.

For `O=C(O)CCCc1ccc(-n2c(CCc3ccccc3)ccc2-c2ccccc2)cc1` [Compound 25, 4-[4-(2-Phenethyl-5-phenyl-pyrrol-1-yl)-phenyl]-butyric acid], in the assay on Aβ42 secretion (Homo sapiens), the IC50 is above 100 µM and the inhibition at 100 µM is 40%. For the same molecule, in the assay with Aβ40 secretion (Homo sapiens), the half-maximal inhibitory concentration (IC50) is above 100 µM and the inhibition at 100 µM turned out to be 30%.

In the case of `Cc1c(-c2ccccc2)cc(-c2ccc(C(F)(F)F)cc2)n1-c1ccc(CCCC(=O)O)cc1` [Compound 16, 4-{4-[2-Methyl-3-phenyl-5-(4-trifluoromethyl-phenyl)-pyrrol-1-yl]-phenyl}-butyric acid], in the assay with Aβ42 secretion (Homo sapiens), the IC50 came to 5 µM and the inhibition at 100 µM was 97%. Further, in the assay on Aβ42 secretion, half-maximal inhibition (IC50) was put at 10 µM and the “% Inhibition of Aβ42 Secretion @ 100 μM” value is listed as 102%. The inhibition at 100 µM in the assay on Aβ40 secretion (Homo sapiens) worked out at 78%. Moreover, in the assay on Aβ40 secretion, the “% Inhibition of Aβ40 Secretion @ 100 μM” value is 93%.

For the molecule `Cc1c(-c2ccccc2)cc(-c2ccccc2)n1-c1ccc(CCCC(=O)O)cc1` [Compound 1, 4-[4-(2-Methyl-3,5-diphenyl-pyrrol-1-yl)-phenyl]-butyric acid], the “% Inhibition of Aβ42 Secretion @ 100 μM” value in the assay with Aβ42 secretion was 101% and 99% and 78%. In addition, the half-maximal inhibitory concentration (IC50) with Aβ40 secretion (Homo sapiens) is above 100 µM; in the assay with Aβ40 secretion, 67 µM.

For `CCOC(=O)c1cc(CCc2ccccc2)n(-c2cccc(CCC(=O)O)c2)c1-c1ccccc1` [Compound 21, 1-[3-(2-Carboxy-ethyl)-phenyl]-5-phenethyl-2-phenyl-1H-pyrrole-3-carboxylic acid ethyl ester], in the assay with Aβ42 secretion (Homo sapiens), the IC50 amounted to 55 µM and the inhibition at 100 µM stood at 66%. In the assay on Aβ40 secretion (Homo sapiens), the IC50 is above 100 µM and the inhibition at 100 µM amounted to 38%.

With `CC(C)c1c(-c2ccccc2)cc(-c2ccccc2)n1-c1cccc(CCC(=O)O)c1` [Compound 31, 3-[3-(2-Isopropyl-3,5-diphenyl-pyrrol-1-yl)-phenyl]-propionic acid], in the assay with Aβ42 secretion (Homo sapiens), the IC50 was found to be 21 µM and the inhibition at 100 µM was 95%. Also, in the assay on Aβ40 secretion (Homo sapiens), the concentration for half-maximal inhibition (IC50) stood at 23 µM and the inhibition at 100 µM came out at 106%.

For `O=C(O)CCc1cccc(-n2c(-c3ccccc3)cc(-c3ccccc3)c2C2CC2)c1` [Compound 34, 3-[3-(2-Cyclopropyl-3,5-diphenyl-pyrrol-1-yl)-phenyl]-propionic acid], in the assay with Aβ42 secretion (Homo sapiens), the IC50 was determined as 30 µM and the inhibition at 100 µM was 95%. In the assay with Aβ40 secretion (Homo sapiens), the IC50 was 48 µM and the inhibition at 100 µM turned out to be 100%.

`Cc1c(-c2cccc(C(F)(F)F)c2)cc(-c2ccccc2)n1-c1ccc(CCCC(=O)O)cc1` [Compound 10, 4-{4-[2-Methyl-5-phenyl-3-(3-trifluoromethyl-phenyl)-pyrrol-1-yl]-phenyl}-butyric acid]: the figures for the IC50 in the assay with Aβ42 secretion (Homo sapiens) and in the assay with Aβ40 secretion (Homo sapiens) were 15 µM and 11 µM, respectively. Moreover, the inhibition at 100 µM in the assay with Aβ42 secretion (Homo sapiens) worked out at 79%; in the assay with Aβ40 secretion (Homo sapiens) it was 97%.

As for `CC(C)c1c(-c2ccccc2)cc(-c2ccccc2)n1-c1cccc(C(=O)O)c1` [Compound 30, 3-(2-Isopropyl-3,5-diphenyl-pyrrol-1-yl)-benzoic acid], in the assay with Aβ42 secretion (Homo sapiens), half-maximal inhibition (IC50) required 15 µM and the inhibition at 100 µM is 99%. Besides, in the assay on Aβ40 secretion (Homo sapiens), the IC50 came to 22 µM and the inhibition at 100 µM came out at 101%.

Take `COc1ccc(C(=O)O)cc1-n1c(-c2ccccc2)cc(-c2ccccc2)c1C` [Compound 4, 4-Methoxy-3-(2-methyl-3,5-diphenyl-pyrrol-1-yl)-benzoic acid]: in the assay on Aβ42 secretion (Homo sapiens), the half-maximal inhibitory concentration (IC50) came to 29 µM and the inhibition at 100 µM is 84%. Further, in the assay on Aβ40 secretion (Homo sapiens), the IC50 is above 100 µM and the inhibition at 100 µM was 22%.

On to `O=C(O)CCCc1ccc(-n2c(-c3ccccc3)cc(-c3ccccc3)c2C2CC2)cc1` [Compound 35, 4-[4-(2-Cyclopropyl-3,5-diphenyl-pyrrol-1-yl)-phenyl]-butyric acid], for which the IC50 in the assay with Aβ42 secretion (Homo sapiens) came to 29 µM; in the assay on Aβ42 secretion it was 24 µM; with Aβ40 secretion (Homo sapiens), 79 µM; in the assay on Aβ40 secretion it was 68 µM. Further, in the assay on Aβ42 secretion (Homo sapiens), the inhibition at 100 µM was determined as 83%. The “% Inhibition of Aβ42 Secretion @ 100 μM” value in the assay with Aβ42 secretion is given as 93%. In addition, the “% Inhibition of Aβ40 Secretion @ 100 μM” value with Aβ40 secretion is 73% and 96%.

On to `Cc1c(-c2ccccc2)cc(-c2ccc(Cl)c(Cl)c2)n1-c1ccc(CCCC(=O)O)cc1` [Compound 19, 4-{4-[5-(3,4-Dichloro-phenyl)-2-methyl-3-phenyl-pyrrol-1-yl]-phenyl}-butyric acid], for which, in the assay with Aβ42 secretion (Homo sapiens), the inhibition at 100 µM stood at 95%. In the assay with Aβ42 secretion, the “% Inhibition of Aβ42 Secretion @ 100 μM” value stood at 109%. This molecule also showed a half-maximal inhibitory concentration (IC50) in the assay on Aβ40 secretion (Homo sapiens) above 100 µM. For the same molecule, in the assay with Aβ40 secretion, the IC50 was found to be 65 µM; the “% Inhibition of Aβ40 Secretion @ 100 μM” value was 42% and 78%.

Consider `Cc1c(-c2ccccc2)cc(-c2ccccc2)n1-c1ccc(C(=O)O)cc1` [Compound 39, 4-(2-Methyl-3,5-diphenyl-pyrrol-1-yl)-benzoic acid], for which the IC50 came to 50 µM with Aβ42 secretion (Homo sapiens) and 54 µM in the assay on Aβ40 secretion (Homo sapiens). In addition, the inhibition at 100 µM in the assay with Aβ42 secretion (Homo sapiens) came out at 86%; with Aβ40 secretion (Homo sapiens), 92%.

For the molecule `Cc1c(-c2ccccc2)cc(-c2ccccc2)n1-c1cccc(OCC(=O)O)c1` [Compound 26, [3-(2-Methyl-3,5-diphenyl-pyrrol-1-yl)-phenoxy]-acetic acid], the IC50 with Aβ42 secretion (Homo sapiens) was determined as 21 µM; with Aβ40 secretion (Homo sapiens), 42 µM. In addition, the inhibition at 100 µM in the assay with Aβ42 secretion (Homo sapiens) was found to be 147%; in the assay on Aβ40 secretion (Homo sapiens), 94%.

(Values after patent US8217073B2, “Pyrrole derivatives as therapeutic compounds” (Myrexis, Inc., priority 2005, dated 2012).)
